Source: PubChem BioAssay (NCI)
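Assay format: 96-well plates, 48-hour exposure. GI50 is the concentration that inhibits growth by half. At the TGI there is no net growth.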

Columns and labels:
Assay in all cases: NCI-60 cell line screen, 48 h
[1] = test system: SK-OV-3 ovarian
[2] = test system: HOP-62 NSCLC
[3] = test system: UACC-257 melanoma
[4] = test system: RXF 393 renal
[5] = test system: UACC-62 melanoma
[6] = test system: MALME-3M melanoma
[7] = test system: HCC-2998 colon
[8] = test system: K-562 leukemia
[9] = test system: CCRF-CEM leukemia

Row | Compound | TGI [1] [µM] | TGI [2] [µM] | TGI [3] [µM] | TGI [4] [µM] | TGI [5] [µM] | TGI [6] [µM] | TGI [7] [µM] | TGI [8] [µM] | TGI [9] [µM] | GI50 [6] [µM] | GI50 [1] [µM] | GI50 [8] [µM] | GI50 [2] [µM] | GI50 [7] [µM] | GI50 [3] [µM] | GI50 [5] [µM]
1 | O=C(Nc1ccc(Cl)cc1Cl)C(=O)C(C(=O)c1ccc2ccccc2c1)C1OC(=O)c2ccccc21 (stereo not given) | > 100 | 27.8 | 65.3 | 11.7 | 46.7 | – | – | – | – | – | – | – | – | – | – | –
2 | O=C(O)C1C2CCC(O2)C1C(=O)N1CCCCC1 (stereo not given) | 42.9 | 35.8 | 32.4 | 8.35 | 20.4 | 23.6 | 11.9 | – | – | – | – | – | – | – | – | –
3 | CCCNCCCC(NC(C)=O)C(=O)NCc1ccccc1 (stereo not given) | > 100 | > 100 | > 100 | > 100 | > 100 | > 100 | > 100 | > 100 | > 100 | – | – | – | – | – | – | –
4 | O=C(c1ccc(Cl)cc1)c1ccc(OCCCCCCCCCCOc2ccc(C(=O)c3ccc(Cl)cc3)cc2)cc1 | > 100 | > 100 | > 100 | > 100 | > 100 | > 100 | > 100 | > 100 | > 100 | – | – | – | – | – | – | –
5 | COc1ccccc1/C=C1\CCC(CCN(C)C)(C2=CCCC2)C1=O (stereo not given) | – | 34.5 | 31 | 27.3 | 23.5 | 30.3 | 31.9 | 56.2 | 51.6 | – | – | – | – | – | – | –
6 | Oc1cc(O)c(Oc2cccc(O)c2O)c(O)c1 | > 100 | > 100 | > 100 | > 100 | > 100 | > 100 | > 100 | > 100 | > 100 | – | – | – | – | – | – | –
7 | COc1cc(/C=C\c2ccccc2)cc(OC)c1OC | – | 23.5 | 41.3 | 5.25 | 41.2 | 19.7 | 48.5 | > 43.2 | 49.8 | – | – | – | – | – | – | –
8 | O=C([CH-]C(=O)c1ccccc1)c1ccccc1.O=C([CH-]C(=O)c1ccccc1)c1ccccc1.O=C([CH-]C(=O)c1ccccc1)c1ccccc1.[Nd+3].[OH3+] | 29.3 | 9.96 | 24.6 | – | 19.2 | 36.4 | 19 | 16.7 | – | 9.41 | 5.58 | 2.8 | 2.62 | 4.73 | 7.84 | 4.3
9 | CS(=O)(=O)OCCN1CCN(C(=O)c2cccc3c(Nc4ccc(S(=O)(=O)N=C(N)N)cc4)c4ccccc4nc23)CC1 | > 100 | > 100 | > 100 | > 100 | > 100 | > 100 | > 100 | > 100 | > 100 | – | – | – | – | – | – | –
10 | O=C(/C=C/c1ccccc1)CC1OC(=O)c2ccccc21 (stereo not given) | > 100 | > 100 | > 100 | > 100 | 66.5 | > 100 | > 100 | > 100 | > 100 | – | – | – | – | – | – | –
11 | Nc1nc2c(c(=O)[nH]1)NC(CO)CN2 (stereo not given) | > 100 | > 100 | 64.3 | > 100 | > 100 | > 100 | – | > 100 | > 100 | – | – | – | – | – | – | –
